The values below come from EPA's ToxValDB 9.5.

One data set concerns Ovis sp. Conditions: uterotrophic; duration: 14 days; injection; Active.
In another data set the test system is Mus musculus. Conditions: uterotrophic, Active.
Data set [1] has as its system Rattus norvegicus. The note with it: uterotrophic, Active.
Data set [2] deals with Rattus norvegicus. The note with it: subchronic; duration: 13 weeks; oral; diet; M/F; Fischer 344; Body Weight Changes: decrease + Histopathology: Seminal vesicle-Atrophy Bone-Osteopetrosis Pituitary-Hyperplasia Mammary gland-Ductular ….
The test system of the next data set is Sus scrofa. Conditions: reproduction developmental; duration: 15 days; oral; diet; F; Not specified; Increased inter-estrus interval, concentrations of progesterone and prolonged maintenance of corpora lutea.
The test system of another data set is Oryctolagus sp. Conditions: uterotrophic; duration: 12 days; oral; Active.
Where [3] appears, read: duration: 1 days, injection, subcutaneous.

Where only a bound is given, the exact number is not on record here.

On to `C[C@]12CC[C@@H]3c4ccc(O)cc4CC[C@H]3[C@@H]1C[C@@H](O)[C@@H]2O` [Estriol], for which the LEL is 0.001 mg/day in the data set on Ovis sp.; 2.88e-07 mg in the data set with Mus musculus (duration: 0.17 days, injection, subcutaneous); 0.0761 mg/kg-day in the data set on Mus musculus (setting [3]); 0.93 mg/kg-day with Mus musculus (duration: 3 days, oral); 0.001 mg/day in the data set on Rattus norvegicus [1] (duration: 0.125 days, injection, subcutaneous); 0.001 mg/day in the data set with Rattus norvegicus [1] (duration: 0.25 days, injection, subcutaneous). Also, the LEL stood at 3 mg/L with Rattus norvegicus [1] (duration: 1 days, dermal); 0.001 mg with Rattus norvegicus [1] (duration: 1 days, injection, intraperitoneal); 0.01 mg/day with Rattus norvegicus [1] (duration: 2 days, injection, subcutaneous); 0.09 mg/kg-day with Rattus norvegicus [1] (duration: 3 days, oral). In addition, the “LEL (gamma)” value with Mus musculus (duration: 3 days, injection, subcutaneous) was determined as 0.04. Besides, the “LEL (% (w/w))” value in the data set on Rattus norvegicus [1] (duration: 2 days, implant) is 40. For the same molecule, the “LEL (pellets)” value in the data set on Rattus norvegicus [1] (duration: 2 days, implant) came out at 4. The “LEL (rat units)” value in the data set with Rattus norvegicus [1] (duration: 5 days) was determined as 1.
As for `C[C@H]1CCCC(=O)CCC/C=C/c2cc(O)cc(O)c2C(=O)O1` [Zearalenone], the figures for the NOEL in the data set with Rattus norvegicus [2] and with Sus scrofa were under 2.88 mg/kg-day and 0.04 mg/kg-day, respectively. The molecule also showed an LOEL with Sus scrofa of 0.2 mg/kg-day. Also, the LEL in the data set with Mus musculus (setting [3]) turned out to be 5 mg/kg-day; in the data set on Mus musculus (duration: 7 days, oral), 1 mg/kg-day; in the data set on Mus musculus (oral), 2 mg/kg-day; in the data set on Oryctolagus sp., 1 mg/kg-day; in the data set on Rattus norvegicus [1] (duration: 3 days, oral), 0.18 mg/day; in the data set on Rattus norvegicus [1] (duration: 3 days, oral, diet), 1 mg/kg-day. The LEL in the data set on Rattus norvegicus [1] (duration: 8 days, oral) turned out to be 1 mg/kg-day.
